What is called IC50 is the point on the concentration scale where inhibition reaches its midpoint.

The target of this experiment is A2A receptor (Homo sapiens, UniProt P29274). The experiment is described as follows: Inhibition of cAMP production in HEK cells. The conditions noted are these: HEK-293 cells with A2A receptor. Type of experiment: cell-based. (Changes in cAMP serve as a functional read-out for many G protein-coupled receptors.)
Chain of A2A receptor (P29274 whole entry): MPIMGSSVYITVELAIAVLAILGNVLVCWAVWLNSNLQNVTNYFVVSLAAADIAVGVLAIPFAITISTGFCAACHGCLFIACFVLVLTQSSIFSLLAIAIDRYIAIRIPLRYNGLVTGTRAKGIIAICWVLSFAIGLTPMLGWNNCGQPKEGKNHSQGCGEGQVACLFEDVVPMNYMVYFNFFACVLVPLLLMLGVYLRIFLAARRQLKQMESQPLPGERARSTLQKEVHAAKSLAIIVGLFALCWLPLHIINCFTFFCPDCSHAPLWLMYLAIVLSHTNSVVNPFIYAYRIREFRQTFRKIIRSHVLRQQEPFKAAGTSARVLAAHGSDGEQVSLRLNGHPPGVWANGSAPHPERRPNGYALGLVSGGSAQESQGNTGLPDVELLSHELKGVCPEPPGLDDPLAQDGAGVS

In the case of `NC(=O)COc1cc(N2CCN(CCn3c(=O)sc4c3nc(N)n3nc(-c5ccco5)nc43)CC2)c(F)cc1F` [Compound 4, 2-(5-(4-(2-(5-amino-8-(furan-2-yl)-2-oxothiazolo[5,4-e][1,2,4]triazolo [1,5-c]pyrimidin-3(2H)-yl)ethyl)piperazin-1-yl)-2,4-difluorophenoxy)acetamide], the IC50 stood at 0.5 nM (IC50 (nM) (3 nM NECA as agonist, 0.1% BSA), 3 nM NECA as agonist, 0.1% BSA); 2 nM (IC50 (nM) (5 nM NECA as agonist, 2% HSA), 5 nM NECA as agonist, 2% HSA); 49 nM (IC50 (nM) (5 μM Adenosine as agonist, 2.0% HSA), 5 μM Adenosine as agonist, 2.0% HSA).

The record behind these values is patent publication US10995101B2, “2-oxo-thiazole derivatives as A2A inhibitors and compounds for use in the treatment of cancers” (iTeos Therapeutics SA, priority 2017, dated 2021).
